Molecular target: GPX4
Type: biochemical
Conditions: covalent; without GCTR

IC50: 12.4 µM
Structure (SMILES): COC(=O)c1ccc([C@H]2c3[nH]c4ccccc4c3C[C@H](C(=O)OC)N2C(=O)CCl)cc1 [RSL3]

Source: article PMC10963859 (Redox Biology, 2024)
